The results in this text go back to US9856279B2 (AGIOS PHARMACEUTICALS, INC, priority 2011, dated 2018).

A value given as a limit tells only on which side of the number the result lay.

IDH1 R132H, sequence (O75874 whole entry R132H): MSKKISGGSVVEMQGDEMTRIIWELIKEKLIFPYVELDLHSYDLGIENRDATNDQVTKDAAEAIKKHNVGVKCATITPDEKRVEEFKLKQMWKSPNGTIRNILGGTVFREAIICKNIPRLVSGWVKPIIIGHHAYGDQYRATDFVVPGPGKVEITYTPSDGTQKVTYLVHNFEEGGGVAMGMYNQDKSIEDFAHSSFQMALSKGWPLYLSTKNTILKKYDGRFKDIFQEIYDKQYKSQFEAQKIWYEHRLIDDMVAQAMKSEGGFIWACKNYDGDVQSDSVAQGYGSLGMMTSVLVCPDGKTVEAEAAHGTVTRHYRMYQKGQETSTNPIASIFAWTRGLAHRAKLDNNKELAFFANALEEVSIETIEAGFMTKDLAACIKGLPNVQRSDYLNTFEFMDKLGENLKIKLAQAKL

The first test concerns the target IDH1 R132H (Homo sapiens, UniProt O75874, R132H). The test can be described thus: Assay for IDH1 R132H inhibitors (NADPH/aKG, resazurin detection). The class given is biochemical. To be noted: Table 3; enzyme assay, 50 minutes at room temperature; read-out: IC50 (IDH1 R132H Inhibition). The essentials: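 Read-out is resorufin fluorescence (Ex544/Em590) 5 min after adding a 30 μM resazurin detection mix. Before that, mutant enzyme (0.2 μg/ml in its mix) ran 50 min at room temperature with compound, 8 uM NADPH and 2 mM aKG (mix levels) in Tris pH 7.5 with NaCl, MgCl2, BSA.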
As a reminder, the IC50 is the concentration that gives 50% inhibition. For `COCCC(=O)N1CCN(c2nc(-c3ccccc3)c(-c3ccccc3)cc2C#N)C[C@H]1C` [Compound 240, (R)-2-(4-(3-methoxypropanoyl)-3-methylpiperazin-1-yl)-5,6-diphenylnicotinonitrile], the IC50 is 1000 to 5000 nM.
`CC(C)c1cc(-c2ccccc2)nc(N2CCN(C(=O)c3ccoc3)C(C)C2)c1C#N` (stereo not drawn) [Compound 111]: the IC50 was in the range of 5000 to 15000 nM.
On the same count and under the same terms, the figure for `CCc1ccc(-c2cc(C#N)c(N3CCN(C(=O)CCOC)[C@H](C)C3)nc2C(C)C)cc1` [Compound 216, 5-(4-ethylphenyl)-6-isopropyl-2-(4-(3-methoxypropanoyl)-3-methylpiperazin-1-yl)nicotinonitrile] is 1000 to 5000 nM.
On the same count and under the same terms, the figure for `CC(C)c1nc(N2CCN(C(=O)c3ccoc3)CC2c2ccccc2)c(C#N)cc1-c1ccccc1` (stereo not drawn) [Compound 159, 2-(4-(furan-3-carbonyl)-2-phenylpiperazin-1-yl)-6-isopropyl-5-phenylnicotinonitrile] is 5000 to 15000 nM.
With `CC(C)c1nc(N2CCN(C(=O)c3ccco3)[C@H](C)C2)c(C#N)cc1-c1ccc(C(F)(F)F)cc1` [Compound 185, (R)-2-(4-(furan-2-carbonyl)-3-methylpiperazin-1-yl)-6-isopropyl-5-(4-(trifluoromethyl)phenyl) nicotinonitrile], the IC50 fell in the range of 1000 to 5000 nM.
Consider `CC(C)c1nc(N2CCN(C(=O)Cc3ccccc3)C(C)C2)c(C#N)cc1-c1ccccc1` (stereo not drawn) [Compound 139, 6-isopropyl-2-(3-methyl-4-(2-phenylacetyl)piperazin-1-yl)-5-phenylnicotinonitrile], for which the IC50 was 1000 to 5000 nM.
For `CC(C)c1cc(-c2ccccc2)c(C#N)c(N2C[C@@H](C)N(C(=O)c3ccco3)[C@@H](C)C2)n1` [Compound 102, 2-((3S,5R)-4-(furan-2-carbonyl)-3,5-dimethylpiperazin-4-yl)-6-isopropyl-4-phenylnicotinonitrile], the half-maximal inhibitory concentration (IC50) was 1000 to 5000 nM.
Turning to `COCCC(=O)N1CCN(c2nc(C3CC3)c(-c3ccc(C)c(F)c3)cc2C#N)C[C@H]1C` [Compound 235, (R)-6-cyclopropyl-5-(3-fluoro-4-methylphenyl)-2-(4-(3-methoxypropanoyl)-3-methylpiperazin-1-yl)nicotinonitrile], the IC50 was at most 1000 nM.
Regarding `CC(C)c1cc(-c2cccc(F)c2)c(C#N)c(N2CC(C)N(C(=O)Cc3ccccc3)C(C)C2)n1` (stereo not drawn) [Compound 135, 2-(3,5-dimethyl-1-(2-phenylacetyl)piperazin-1-yl)-4-(3-fluorophenyl)-6-isopropylnicotinonitrile], the IC50 is 1000 to 5000 nM.
With `COCCC(=O)N1CCN(c2nc(C3CC3)c(-c3ccc(F)cc3)c(C)c2C#N)C[C@H]1C` [Compound 241, (R)-6-cyclopropyl-5-(4-fluorophenyl)-2-(4-(3-methoxypropanoyl)-3-methylpiperazin-1-yl)-4-methylnicotinonitrile], the IC50 was at most 1000 nM.
In the case of `COc1ccccc1-c1cc(C#N)c(N2CCN(C(=O)c3ccoc3C)[C@H](C)C2)nc1C(C)C` [Compound 178, (R)-6-isopropyl-5-(2-methoxyphenyl)-2-(3-methyl-4-(2-methylfuran-3-carbonyl)piperazin-1-yl)nicotino-nitrile], the IC50 was in the range of 1000 to 5000 nM.
For `CC[C@@H]1CN(c2nc(C(C)C)c(-c3ccccc3)cc2C#N)CCN1C(=O)c1ccoc1C` [Compound 173, (R)-2-(3-ethyl-4-(2-methylfuran-3-carbonyl)piperazin-1-yl)-6-isopropyl-5-phenylnicotinonitrile], the IC50 lay in the range of 1000 to 5000 nM.
Still for that read-out and setting: with `CC(C)c1nc(N2CCN(C(=O)c3ccco3)C(C)C2)c(C#N)cc1-c1ccccc1` (stereo not drawn) [Compound 119, 2-(4-(furan-2-carbonyl)-3-methylpiperazin-1-yl)-6-isopropyl-5-phenylnicotinonitrile] the figure was 5000 to 15000 nM; with `COCCC(=O)N1CCN(c2nc(C3CC3)c(-c3ccc(C)c(F)c3)c(C)c2C#N)C[C@H]1C` [Compound 258, (R)-6-cyclopropyl-5-(3-fluoro-4-methylphenyl)-2-(4-(3-methoxypropanoyl)-3-methylpiperazin-1-yl)-4-methylnicotinonitrile], at most 1000 nM; with `Cc1cccc(-c2cc(C#N)c(N3CCN(C(=O)c4ccoc4C)[C@H](C)C3)nc2C(C)C)c1` [Compound 200, (R)-6-isopropyl-2-(3-methyl-4-(2-methylfuran-3-carbonyl)piperazin-1-yl)-5-m-tolylnicotinonitrile], 1000 to 5000 nM.

Still in this test, the particulars now being: enzyme assay of Example 12; read-out: IDH1R132H IC50.
With `COCCC(=O)N1CCN(c2nc(C3CC3)c(-c3cccc(N(C)C)c3)cc2C#N)C[C@H]1C` [Compound 413, (R)-6-cyclopropyl-5-(3-(dimethylamino)phenyl)-2-(4-(3-methoxypropanoyl)-3-methylpiperazin-1-yl)nicotinonitrile], the IC50 was 500 to 1000 nM.
In the case of `Cc1cc2c(-c3cc(C#N)c(N4CCN(C(=O)CC(F)(F)F)[C@H](C5CC5)C4)nc3C3CC3)cccc2cn1` [Compound 471, (R)-6-cyclopropyl-2-(3-cyclopropyl-4-(3,3,3-trifluoropropanoyl)piperazin-1-yl)-5-(3-methylisoquinolin-5-yl)nicotinonitrile], the IC50 is below 500 nM.
On the same count and under the same terms, with `C=Cc1cc(-c2c(C3CC3)nc(N3CCN(C(=O)CCCCC)[C@H](C4CC4)C3)c(C#N)c2C)ccn1` [Compound 827, (R)-2-cyclopropyl-6-(3-cyclopropyl-4-hexanoylpiperazin-1-yl)-4-methyl-2′-vinyl-3,4′-bipyridine-5-carbonitrile] the figure was below 500 nM; with `Cn1ncc(-c2cc(C#N)c(N3CCN(C(=O)C4CC4)[C@H](C4CC4)C3)nc2C2CC2)cc1=O` [Compound 640, (R)-2-(4-(cyclopropanecarbonyl)-3-cyclopropylpiperazin-1-yl)-6-cyclopropyl-5-(1-methyl-6-oxo-1,6-dihydropyridazin-4-yl)nicotinonitrile], below 500 nM; with `COCCC(=O)N1CCN(c2nc(C3CC3)c(-c3cccc(CO)c3)cc2C#N)C[C@H]1C` [Compound 306, (R)-6-cyclopropyl-5-(3-(hydroxymethyl)phenyl)-2-(4-(3-methoxypropanoyl)-3-methylpiperazin-1-yl)nicotinonitrile], 500 to 1000 nM.
Regarding `COCCC(=O)N1CCN(c2nc(C3CC3)c(N3CCN(CC4CC4)CC3)cc2C#N)C[C@H]1C` [Compound 378, (R)-6-cyclopropyl-5-(4-(cyclopropylmethyl)piperazin-1-yl)-2-(4-(3-methoxypropanoyl)-3-methylpiperazin-1-yl)nicotinonitrile], the IC50 is below 500 nM.
Regarding `N#Cc1cc(-c2ccc3[nH]ncc3c2)c(C2CC2)nc1N1CCN(C(=O)CC(F)(F)F)[C@H](C2CC2)C1` [Compound 552], the IC50 was below 500 nM.
Consider `C=Cc1cc(-c2c(C3CC3)nc(N3CCN(C(=O)C=C4CCC4)[C@H](C4CC4)C3)c(C#N)c2C)ccn1` [Compound 820, (R)-6-(4-(2-cyclobutylideneacetyl)-3-cyclopropylpiperazin-1-yl)-2-cyclopropyl-4-methyl-2′-vinyl-3,4′-bipyridine-5-carbonitrile], for which the IC50 is below 500 nM.
With `COCCC(=O)N1CCN(c2nc(C3CC3)c(-c3ccc(-c4ccccc4)c(F)c3)c(C)c2C#N)C[C@H]1C` [Compound 282, (R)-6-cyclopropyl-5-(2-fluorobiphenyl-4-yl)-2-(4-(3-methoxypropanoyl)-3-methylpiperazin-1-yl)-4-methylnicotinonitrile], the IC50 was in the range of 500 to 1000 nM.
